The values below come from ChEMBL document CHEMBL1201862, “PubChem BioAssay data set” (2004).

Molecules are shown by their SMILES. Calls of active or inactive are those of the source.

In experiment [1] the test system is CHO-K1. In words: Counterscreen for antagonists of the orexin 1 receptor (OX1R; HCRTR1): Homogeneous time resolved fluorescence (HTRF)-based cell-based dose response assay to identify antagonists of the parental CHO-K1 cell line. [Related pubchem assays (depositor defined):AID434989, AID435008, AID463079, AID485270, AID492963, AID492964, AID492965, AID493232, AID504699, AID504701]. Type of experiment: functional. The conditions noted are these: Cricetulus griseus.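 Also: potency for inhibition of ATP-stimulated IP1 production as antagonists.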

Experiment [2] concerns the target T1, Sentrin-specific protease 7 (Homo sapiens, UniProt Q9BQF6).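 Also: Luminescence-based dose-response confirmation of ultra-high-throughput screening hits, measuring inhibition of SENP7.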
T1 sequence (Q9BQF6 whole entry): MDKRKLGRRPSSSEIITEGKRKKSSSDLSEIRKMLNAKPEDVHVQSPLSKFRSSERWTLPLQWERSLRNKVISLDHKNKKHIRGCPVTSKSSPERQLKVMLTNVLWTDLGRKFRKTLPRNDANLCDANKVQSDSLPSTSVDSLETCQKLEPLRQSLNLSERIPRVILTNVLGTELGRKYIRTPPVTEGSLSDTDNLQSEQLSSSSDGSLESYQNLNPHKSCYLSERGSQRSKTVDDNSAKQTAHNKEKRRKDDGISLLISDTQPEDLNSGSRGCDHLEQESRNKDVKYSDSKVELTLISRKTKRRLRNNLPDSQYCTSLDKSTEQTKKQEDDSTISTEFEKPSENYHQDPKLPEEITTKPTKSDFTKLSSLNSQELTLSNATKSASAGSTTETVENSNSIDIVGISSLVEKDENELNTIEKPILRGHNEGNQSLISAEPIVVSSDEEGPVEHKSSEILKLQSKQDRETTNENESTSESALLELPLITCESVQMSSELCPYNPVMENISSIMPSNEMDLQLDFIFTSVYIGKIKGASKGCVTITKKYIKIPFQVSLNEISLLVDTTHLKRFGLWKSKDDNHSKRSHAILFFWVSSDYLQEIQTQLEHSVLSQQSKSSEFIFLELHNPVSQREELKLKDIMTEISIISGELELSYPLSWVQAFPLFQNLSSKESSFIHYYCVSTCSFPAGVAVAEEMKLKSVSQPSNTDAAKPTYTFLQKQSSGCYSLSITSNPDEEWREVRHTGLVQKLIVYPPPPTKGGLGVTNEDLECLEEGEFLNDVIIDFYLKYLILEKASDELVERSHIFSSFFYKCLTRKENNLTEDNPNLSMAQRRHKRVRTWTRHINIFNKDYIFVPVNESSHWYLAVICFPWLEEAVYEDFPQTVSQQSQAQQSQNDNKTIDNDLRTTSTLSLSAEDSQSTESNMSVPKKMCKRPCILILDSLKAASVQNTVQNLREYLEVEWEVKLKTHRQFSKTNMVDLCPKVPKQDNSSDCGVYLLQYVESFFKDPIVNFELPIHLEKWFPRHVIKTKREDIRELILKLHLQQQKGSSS
Type of experiment: functional.

In experiment [3] the target is T2, Orexin receptor type 2 (Homo sapiens, UniProt O43614). In words: Counterscreen assay for antagonists of the orexin 1 receptor (OX1R; HCRTR1): Homogeneous Time Resolved Fluorescence (HTRF)-based cell-based dose response assay for antagonists of the orexin 2 receptor (OX2R; HCRTR2), run by assay provider. It counts as functional. Background: A counterscreen serves to expose hits that act by an unwanted route or on another target.

For experiment [4], the target named is T3, Orexin/Hypocretin receptor type 1 (Homo sapiens, UniProt O43613). In words: Homogeneous Time Resolved Fluorescence (HTRF)-based cell-based high throughput dose response assay for antagonists of the orexin 1 receptor (OX1R; HCRTR1). [Related pubchem assays (depositor defined):AID434989, AID435008, AID463079, AID485270, AID492963, AID492964, AID492965, AID493232, AID504717, AID504718]. It counts as functional.

Experiment [5] concerns the target T4, Caspase-3 (Homo sapiens, UniProt P42574).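 Also: Dose-response selectivity test against caspase-3 for candidate inhibitors of sentrin-specific proteases (SENPs).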
T4 sequence (P42574 whole entry): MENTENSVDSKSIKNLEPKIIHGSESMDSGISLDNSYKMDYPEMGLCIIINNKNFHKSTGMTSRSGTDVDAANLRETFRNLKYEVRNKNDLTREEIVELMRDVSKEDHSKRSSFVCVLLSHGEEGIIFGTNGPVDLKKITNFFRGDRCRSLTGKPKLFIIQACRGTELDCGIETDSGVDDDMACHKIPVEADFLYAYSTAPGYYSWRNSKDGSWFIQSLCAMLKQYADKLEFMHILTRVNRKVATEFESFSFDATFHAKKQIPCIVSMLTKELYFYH
Type of experiment: functional.

For experiment [6], the target named is T2, Orexin receptor type 2. In words: Counterscreen assay for antagonists of the orexin 1 receptor (OX1R; HCRTR1): Fluorescence-based cell-based dose response assay for antagonists of the orexin 2 receptor (OX2R; HCRTR2), run by assay provider. Type of experiment: functional.
Experiment [7] has as its target T5, Sentrin-specific protease 8 (Homo sapiens, UniProt Q96LD8).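 Also: luminescence read-out of SENP8 inhibition, dose-response confirmation following an ultra-high-throughput screen.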
T5 sequence (Q96LD8 whole entry): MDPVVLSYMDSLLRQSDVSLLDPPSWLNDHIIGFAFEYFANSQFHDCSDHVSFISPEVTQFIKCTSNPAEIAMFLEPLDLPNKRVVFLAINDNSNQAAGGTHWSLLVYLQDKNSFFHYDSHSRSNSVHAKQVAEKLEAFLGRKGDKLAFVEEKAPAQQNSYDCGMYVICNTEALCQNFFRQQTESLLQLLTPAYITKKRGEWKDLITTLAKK
It counts as functional.

Experiment [8] addresses T6, Sentrin-specific protease 6 (Homo sapiens, UniProt Q9GZR1).
T6 sequence (Q9GZR1 whole entry): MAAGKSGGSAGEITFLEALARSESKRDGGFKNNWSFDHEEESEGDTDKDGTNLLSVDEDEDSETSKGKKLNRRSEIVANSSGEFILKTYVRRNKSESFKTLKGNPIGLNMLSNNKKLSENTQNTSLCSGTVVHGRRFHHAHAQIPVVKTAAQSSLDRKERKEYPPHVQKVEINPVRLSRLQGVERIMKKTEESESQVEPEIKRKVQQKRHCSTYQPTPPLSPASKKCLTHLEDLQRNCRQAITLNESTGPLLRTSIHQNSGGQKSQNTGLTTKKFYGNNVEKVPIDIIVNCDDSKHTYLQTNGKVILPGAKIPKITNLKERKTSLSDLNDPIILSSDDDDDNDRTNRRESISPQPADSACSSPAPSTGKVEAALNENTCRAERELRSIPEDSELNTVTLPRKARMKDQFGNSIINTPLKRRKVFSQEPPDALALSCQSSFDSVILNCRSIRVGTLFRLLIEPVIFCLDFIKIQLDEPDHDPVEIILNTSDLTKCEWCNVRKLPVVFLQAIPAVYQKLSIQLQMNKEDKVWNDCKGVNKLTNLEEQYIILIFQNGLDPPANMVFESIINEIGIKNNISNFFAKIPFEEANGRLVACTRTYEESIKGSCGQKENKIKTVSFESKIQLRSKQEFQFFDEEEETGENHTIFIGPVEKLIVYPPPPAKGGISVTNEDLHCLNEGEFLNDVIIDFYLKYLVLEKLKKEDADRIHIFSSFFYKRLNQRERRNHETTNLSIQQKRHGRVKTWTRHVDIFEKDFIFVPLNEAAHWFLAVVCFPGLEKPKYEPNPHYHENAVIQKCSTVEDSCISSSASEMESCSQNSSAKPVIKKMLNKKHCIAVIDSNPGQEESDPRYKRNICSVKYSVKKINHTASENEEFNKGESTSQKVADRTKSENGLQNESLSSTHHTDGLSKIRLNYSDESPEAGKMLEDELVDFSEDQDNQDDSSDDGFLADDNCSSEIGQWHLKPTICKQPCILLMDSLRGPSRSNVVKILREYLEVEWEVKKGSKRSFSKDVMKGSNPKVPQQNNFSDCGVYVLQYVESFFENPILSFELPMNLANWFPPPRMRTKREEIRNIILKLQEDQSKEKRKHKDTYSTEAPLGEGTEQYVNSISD
It counts as functional.

The target in experiment [9] is T3, Orexin/Hypocretin receptor type 1. In words: Fluorescence-based cell-based high throughput dose response assay for antagonists of the orexin 1 receptor (OX1R; HCRTR1). [Related pubchem assays (depositor defined):AID434989, AID435008, AID463079, AID485270, AID492963, AID492964, AID492965, AID493232, AID504717, AID504718]. Type of experiment: functional.
A short description of experiment [10]: Counterscreen for antagonists of the orexin 1 receptor (OX1R; HCRTR1): Fluorescence-based cell-based high throughput dose response assay to identify antagonists of the parental CHO cell line. [Related pubchem assays (depositor defined):AID434989, AID435008, AID463079, AID485270, AID492963, AID492964, AID492965, AID493232, AID504699, AID504701]. It counts as functional.

Experiment [11] addresses T7, High affinity choline transporter 1 (Homo sapiens, UniProt Q9GZV3).
T7 sequence (Q9GZV3 whole entry): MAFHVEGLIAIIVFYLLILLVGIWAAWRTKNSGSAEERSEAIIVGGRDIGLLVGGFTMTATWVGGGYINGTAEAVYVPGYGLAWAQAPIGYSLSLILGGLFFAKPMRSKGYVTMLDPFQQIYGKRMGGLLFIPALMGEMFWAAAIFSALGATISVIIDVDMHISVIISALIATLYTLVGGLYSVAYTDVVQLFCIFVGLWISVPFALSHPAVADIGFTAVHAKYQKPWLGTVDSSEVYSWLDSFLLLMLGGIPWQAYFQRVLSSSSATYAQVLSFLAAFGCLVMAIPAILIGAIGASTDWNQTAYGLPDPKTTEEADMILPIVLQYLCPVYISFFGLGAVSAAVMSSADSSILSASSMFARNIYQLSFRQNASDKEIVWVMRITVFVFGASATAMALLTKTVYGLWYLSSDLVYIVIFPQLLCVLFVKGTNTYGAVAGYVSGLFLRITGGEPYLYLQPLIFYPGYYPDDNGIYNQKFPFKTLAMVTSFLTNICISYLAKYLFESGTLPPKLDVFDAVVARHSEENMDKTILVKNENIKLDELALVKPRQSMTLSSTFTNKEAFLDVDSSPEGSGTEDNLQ
In words: human choline transporter potentiators, potency – cell-based, 10-point CRC, membrane potential dye, dose response (AID 602376). Type of experiment: functional.

A short description of experiment [12]: A cell-based HTS for delayed death inhibitors of the malarial parasite plastid Measured in Microorganism System Using Plate Reader - 2126-02_Inhibitor_Dose_DryPowder_Activity. Type of experiment: functional, organism-based.
A short description of experiment [13]: A cell-based HTS for delayed death inhibitors of the malarial parasite plastid Measured in Microorganism System Using Plate Reader - 2126-01_Inhibitor_Dose_DryPowder_Activity. It counts as functional, organism-based.
The nature of experiment [14]: THP-1 cell cytotoxicity, dose response, cytotoxicity control, set 3 (AID 504852). It counts as functional. The note with it: Mycobacterium tuberculosis.

T2 sequence (O43614 whole entry): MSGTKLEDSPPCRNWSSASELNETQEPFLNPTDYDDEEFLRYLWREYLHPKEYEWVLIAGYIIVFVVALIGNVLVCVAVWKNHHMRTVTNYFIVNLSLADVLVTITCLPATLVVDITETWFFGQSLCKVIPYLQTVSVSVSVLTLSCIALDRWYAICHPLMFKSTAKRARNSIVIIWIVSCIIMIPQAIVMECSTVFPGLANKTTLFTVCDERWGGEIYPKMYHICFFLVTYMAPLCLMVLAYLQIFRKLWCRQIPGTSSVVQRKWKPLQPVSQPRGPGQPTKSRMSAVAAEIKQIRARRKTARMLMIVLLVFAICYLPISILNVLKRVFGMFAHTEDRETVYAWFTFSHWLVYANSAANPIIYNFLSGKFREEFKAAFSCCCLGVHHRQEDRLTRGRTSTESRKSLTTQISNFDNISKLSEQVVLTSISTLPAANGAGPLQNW
T3 sequence (O43613 whole entry): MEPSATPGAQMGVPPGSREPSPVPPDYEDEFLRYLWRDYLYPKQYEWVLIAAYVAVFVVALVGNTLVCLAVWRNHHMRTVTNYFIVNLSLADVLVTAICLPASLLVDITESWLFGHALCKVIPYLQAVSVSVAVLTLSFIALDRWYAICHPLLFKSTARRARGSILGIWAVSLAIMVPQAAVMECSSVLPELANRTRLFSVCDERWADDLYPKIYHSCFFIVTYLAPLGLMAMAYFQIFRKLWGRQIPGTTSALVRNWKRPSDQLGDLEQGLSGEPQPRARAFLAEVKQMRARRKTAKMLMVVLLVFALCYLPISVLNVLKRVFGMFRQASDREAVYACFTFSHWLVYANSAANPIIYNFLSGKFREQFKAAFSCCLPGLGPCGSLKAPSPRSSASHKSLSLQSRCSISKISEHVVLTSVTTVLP

`COc1ccc(/C=C/c2n[nH]c(-c3ccccc3O)n2)cc1OC`: the IC50 in experiment [1] was > 66.2 µM (inactive); in experiment [2] it was 4.7 µM (active); in experiment [3] it was > 50 µM (inactive); in experiment [4] it was 2.51 µM (active); in [5], 58.8 µM (active); in [6], > 88.8 µM (inactive). The IC50 in experiment [7] was 12.7 µM (active); in experiment [8] it was 13.6 µM (active); in experiment [9] it was 3.21 µM (active); in experiment [10], > 49.8 µM (inactive).
`CN(CC(=O)Nc1ccc(F)c(F)c1F)C(=O)c1cc(-c2ccncc2)nc2ccccc12`: the EC50 in [11] was 14.6 µM (active).
`CC(C)NC(=O)Nc1ccc2c(c1)C(=O)N([C@@H](C)CO)C[C@@H](C)[C@H](CN(C)S(=O)(=O)c1ccc(F)cc1)OCCCC[C@H](C)O2`: the AC50 was 0.765 µM (active) in experiment [12] and 0.71 µM (active) in experiment [13].
Regarding `CCC(Sc1nc2ccccc2c(=O)[nH]1)C(=O)NC1CCCCC1` (centres undefined), the CC50 in experiment [14] was > 100 µM (active).

For orientation: IC50 means the midpoint of a concentration-inhibition curve. In general, EC50 refers to the concentration giving half of the maximal effect. The AC50 is the concentration at which the activity in the assay is half-maximal. Broadly, the CC50 is the concentration at which the toxic effect on the cells reaches its halfway point.
